The values that follow come from patent US12251374B2, “Fampridine TTS” (LTS Lohmann Therapie-Systeme AG, priority 2017, dated 2025).

Series [1] can be described thus: Saturation concentration Cs of fampridine in polymer matrices ("sandwich" method by Liu). It counts as physicochemical. Conditions: for Cs of fampridine: 7 days at room temperature. Here is the method:
The saturation concentration Cs of […] determined in various polymer matrices by the method described by Liu. (Liu, P., Gargiulo, P., Wong, J., and Novartis (1997). A Novel Method for Measuring Solubility of a Drug in an Adhesive, Pharmaceutical Research 14, page 317). In this method, known by specialists as the “sandwich” method, the saturation concentration is determined as follows: A laminate is constructed, having the following layer sequence: protective film-donor layer with active ingredient (dissolved and undissolved)-active ingredient-permeable membrane-acceptor layer without active ingredient-protective film. The two protective films are made of identical material; the matrix material of the donor and of the acceptor layer is likewise identical. The donor layer is produced by dissolving the active ingredient in a solution of the polymer in organic solvent. The concentration of the active ingredient must be selected to be high enough that an undissolved residue can be identified in the polymer matrix so that the saturation concentration Cs in the donor layer is reliably exceeded. This solution is applied to the protective film, and the process solvent is evaporated. The adhesive surface of the donor layer is then covered with the membrane. A dialysis tube made of regenerated cellulose (ZelluTrans®, from Roth, 46 mm flat width) that has been cut to size in the longitudinal direction is used as membrane. The acceptor layer is produced without active ingredient, similarly to the donor layer, and the membrane is applied to the other side. The laminates thus produced are then stored for 7 days at room temperature, during which time the active ingredient diffuses through the membrane into the acceptor layer. The active ingredient concentration in the […] is then determined. To this end, aliquots of approximately 1 cm^2 are punched out using a punching tool of standardised area. The membrane is then removed, the punched blanks without membrane are weighed, and their weight is recorded (m1). The punched blanks are then placed in organic solvent so as to remove the matrices. The backing layers are removed, washed, and dried, and their weight (m2) is determined. […] The concentration of […] solution is then calculated using an HPLC method, and its concentration in the […] is calculated. The saturation concentrations of […] different polymer matrices determined on the basis of this test approach are summarised in Table 1: […]

A short description of series [2]: Solubility of fampridine base in organic solvents. The format is physicochemical. Here is the method: Since toluene polysiloxane solution is not commercially obtainable, BIO PSA 4201 from Dow Chemicals (polysiloxane in n-heptane) was used as starting material. The solvent was evaporated and the rubber-like polymer residue was dissolved with so much toluene that a solution with approximately 75% solids was obtained.

Each structure is given as a SMILES string.

Regarding `Nc1ccncc1` [fampridine, 4-aminopyridine], in series [1] (in acidic polymers vs neutral polymers), the “saturation concentration Cs relative to neutral polymers” value is “approximately 3 times higher”. Besides, the Cs of fampridine in series [1] (in acrylate copolymer of 2-ethylhexylacrylate, butyl acrylate, vinyl acetate, acrylic acid, ethyl acetate) is given as 7.4%; in series [1] (in acrylate copolymer of 2-ethylhexylacrylate, vinyl acetate and 2-hydroxyethyl acrylate, ethyl acetate) it was 3.3%; in series [1] (in polyisobutylene, polymer dissolved in toluene) it was 2.2%; in series [1] (in polysiloxane, ethyl acetate), 0.3%; in series [1] (in styrene-isoprene-styrene block copolymer, polymer dissolved in toluene) it was 2.7%. For the same compound, in series [1] (in neutral polymers (summary of Table 1)), the “saturation concentration Cs of fampridine” value is reported as “approximately 3%”. Besides, in series [1] (in polysiloxane), the “Cs of fampridine (in words)” value is recorded as “especially low”. In addition, the Solubility entry in series [2] (in aromatic hydrocarbons) is “sufficiently soluble”; in series [2] (in n-heptane), “not”.
